This note sets out measurements from patent publication US8614251B2, “Crystalline form VI of agomelatine, preparation method and application thereof” (Les Laboratories Servier, priority 2009, dated 2013).

One may read the solubility as the concentration that dissolves in the medium under given conditions. A low value points to little dissolved substance.

The structures appear in SMILES notation. Values after ≈ are worked out from the molar mass of the structure shown.

The nature of data set [1]: Stability of crystalline forms on storage at 40° C. for 20 days, purity by HPLC. It counts as physicochemical. The settings on record: for Purity after storage in the thermostatically controlled containers for 20 days / Purity before storage: HPLC. The procedure:
Crystalline forms II, III, IV and VI are respectively placed in a thermostatically controlled container at 40° C. for 20 days. The stability of the said crystalline forms is assessed by high performance liquid chromatography.
Chromatographic conditions: octadecylsilane bonded silica as filler; a mixed solution of 10 mM/L phosphate buffer (adjusted to pH 7.0 by sodium hydroxide) and acetonitrile in 2:7 by volume as mobile phase; column temperature 40° C.; detection wavelength 220 nm. The purity is determined using an internal standard method.
The crystalline forms II, III, IV and VI were formulated with the mobile phase as 1 mg/mL solution. 10 μL of each of the solution was removed and injected into the liquid chromatograph. The chromatograms were recorded.
The assay was carried out using an external standard method as described under Purity Measurement of the Sample.

Data set [2] in a line: Solubility measurement in water by HPLC, external standard method. It counts as physicochemical. As for the experimental part: 3. Solubility Measurement in Water
The measurement was carried out by HPLC using an external standard method.

For `COc1ccc2cccc(CCNC(C)=O)c2c1` [crystalline form II, N-[2-(7-methoxy-1-naphthyl)ethyl]acetamide], the “Purity after storage in the thermostatically controlled containers for 20 days” value (from here on “Purity after storage”) in data set [1] (40° C., 20 days) turned out to be 99.24%. Further, in data set [1], the Purity before storage stood at 99.79%.
The matching figures for `COc1ccc2cccc(CCNC(C)=O)c2c1` [crystalline form III, N-[2-(7-methoxy-1-naphthyl)ethyl]acetamide]: 99.10% and 99.77%.
As to `COc1ccc2cccc(CCNC(C)=O)c2c1` [crystalline form VI, N-[2-(7-methoxy-1-naphthyl)ethyl]acetamide], the “Solubility compared with the existing crystalline forms” value in data set [2] was “superior”. In addition, in data set [2] (HPLC), the solubility is 1240 µg/mL (≈ 5.1 mM). For the same compound, in data set [1] (40° C., 20 days), the “Stability compared with the existing crystalline forms” value was “superior” and the “Purity after storage” value is on record as 99.55%. This compound returned a Purity before storage in data set [1] of 99.60%.
Take `COc1ccc2cccc(CCNC(C)=O)c2c1` [crystalline form IV, N-[2-(7-methoxy-1-naphthyl)ethyl]acetamide]: the “Purity after storage” value in data set [1] (40° C., 20 days) is 99.54%. Moreover, the Purity before storage in data set [1] amounted to 99.82%.
